Like-named read-outs stand apart in the source and are kept apart here.
How the values were obtained:
[1] = target: hERG channel (Homo sapiens, UniProt Q12809); assay: whole-cell voltage-clamp tail current / current density experiments in hERG-HEK cells
Procedure: A set of whole-cell, voltage-clamp experiments was performed using a HEKA® EPC 9 amplifier. Data was recorded and analyzed using the HEKA® Patchmaster and Fitmaster software. At the time of the recordings, cell culture media was replaced by a bath solution (containing (mM): 137 NaCl, 4 KCl, 1.8 CaCl2, 10 HEPES, and 10 glucose, pH adjusted to 7.4 with NaOH). The pipette solution containing different concentrations of the drug to test was introduced. Borosilicate glass electrodes (tip resistant 2-5 MΩ) were filled with internal solution (containing (mM): 130 KCl, 1 MgCl2, 5 EGTA, 5 MgATP and 10 HEPES, pH adjusted to 7.2 with KOH). Tail currents were measured at repolarizing test potentials (−100 to +40 mV, 4 seconds each) following a one second depolarizing step to +60 mV from a holding potential of −80 mV. Cell recordings were performed in a minimum of 2 plates (3-5 cells/plate) for each EFV concentration and compared to control.
In hERG-HEK cells that were transiently […] with CYP2B6*1 cDNA, tail current recordings were performed using the following 2-sweep voltage clamp protocol: membrane potential was held at −80 mV, increased to 60 mV (1 second), and currents were measured during two repolarizing steps at −100 and −20 mV (5 seconds each). This protocol was performed twice for each cell at 1 and 2 minutes following cytosolic access and exposure to the pipette solution to evaluate the influence of incubation time on drug mediated alterations in hERG channel conductivity. A sigmoidal Emax model was fit to the EFV inhibitory effect on 1hERG using Prism (GraphPad Software, Inc., La Jolla, Calif.).
Sotalol ester, soestolol (ester A, Table 1, Example 1) and its corresponding acid (ester C) were evaluated. The studies were performed blinded with the operator unaware of the chemical structure of Ester A or Ester C.

[2] = cited from earlier work

hERG channel, sequence (Q12809 whole entry): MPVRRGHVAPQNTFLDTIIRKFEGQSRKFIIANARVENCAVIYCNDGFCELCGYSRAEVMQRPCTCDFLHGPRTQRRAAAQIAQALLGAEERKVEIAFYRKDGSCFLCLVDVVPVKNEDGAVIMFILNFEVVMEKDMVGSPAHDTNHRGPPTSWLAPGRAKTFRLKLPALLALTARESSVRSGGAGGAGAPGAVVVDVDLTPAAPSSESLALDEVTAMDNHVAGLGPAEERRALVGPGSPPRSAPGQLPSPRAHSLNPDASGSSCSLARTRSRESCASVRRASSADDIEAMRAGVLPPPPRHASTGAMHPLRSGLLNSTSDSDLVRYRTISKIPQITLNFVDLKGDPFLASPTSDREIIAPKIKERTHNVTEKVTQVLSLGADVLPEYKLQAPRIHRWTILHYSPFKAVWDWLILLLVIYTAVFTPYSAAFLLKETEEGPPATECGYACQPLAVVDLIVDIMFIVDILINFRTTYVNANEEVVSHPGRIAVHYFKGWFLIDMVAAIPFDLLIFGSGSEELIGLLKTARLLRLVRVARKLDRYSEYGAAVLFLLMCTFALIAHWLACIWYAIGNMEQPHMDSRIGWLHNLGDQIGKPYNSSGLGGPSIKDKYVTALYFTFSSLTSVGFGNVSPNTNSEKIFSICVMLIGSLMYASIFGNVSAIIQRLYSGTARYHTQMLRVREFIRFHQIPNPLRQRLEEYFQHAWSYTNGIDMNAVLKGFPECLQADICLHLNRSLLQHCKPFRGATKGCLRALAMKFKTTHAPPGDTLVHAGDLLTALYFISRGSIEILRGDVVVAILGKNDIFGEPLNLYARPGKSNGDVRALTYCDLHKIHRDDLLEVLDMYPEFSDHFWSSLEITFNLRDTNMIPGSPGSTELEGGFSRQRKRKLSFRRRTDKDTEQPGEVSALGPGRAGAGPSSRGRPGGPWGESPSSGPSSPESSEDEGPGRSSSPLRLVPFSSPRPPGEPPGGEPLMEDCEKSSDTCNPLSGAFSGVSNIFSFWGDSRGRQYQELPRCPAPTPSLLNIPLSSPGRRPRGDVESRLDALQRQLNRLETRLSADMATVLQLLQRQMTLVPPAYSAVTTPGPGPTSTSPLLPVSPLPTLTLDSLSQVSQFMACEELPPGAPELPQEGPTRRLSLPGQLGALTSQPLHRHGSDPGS

CC(C)NCC(O)c1ccc(NS(=O)(=O)CC(=O)O)cc1 (stereo not drawn) [Ester C]
activity on current, FIG. 2 [1]: no activity

CC(C)NCC(O)c1ccc(NS(C)(=O)=O)cc1 (stereo not drawn) [sotalol]
reduction in current, FIG. 2 ([1]; 5 μM): dose related reduction in current
reduction in current, FIG. 2 ([1]; 50 μM): dose related reduction in current
inhibition of K current (current density), FIG. 1 ([1]; 5 μm): reduction in current
inhibition of K current (current density), FIG. 1 ([1]; 10 μm): further reduction
half-life ([2]; in man, on average): twelve
terminal elimination half-life ([2]; in vivo): 10 to 20 h

COC(=O)CS(=O)(=O)Nc1ccc(C(O)CNC(C)C)cc1 (stereo not drawn) [Ester A]
inhibition of K current (current density), FIG. 1 [1]: dose dependent reduction in current
potency on K current compared with sotalol, FIG. 1 [1]: significantly more potent than the corresponding sotalol dose

— patent publication US10793519B2, “Ultra short acting anti-arrhythmic agents” (Academic Pharmaceuticals Incorporated, priority 2018, dated 2020)
